In US20190002480A1, “Silane-Containing Heterocyclic Compounds and Methods of Use Thereof for the Treatment of Viral Diseases” (Merck Sharp & Dohme Corp., priority 2015, published 2019):
Read-outs that look alike come from different tables or passages of the source.

What was measured:
HCV replicon GT1a_L31V = assay: Cell-based HCV replicon assay, GT1a L31V; details: Hepatitis C virus, 72 h, read-out: GT1a_L31V EC90
Experimental: (§1) To measure cell-based anti-HCV activity of compounds of the present invention, two complimentary assays were employed using various replicons. In the first assay (“Replicon Assay A”), replicon cells were seeded at 2000 cells/well in 384-well 384-well flat bottom tissue culture treated clear bottom plate (Corning 3707) in the presence of the test compound. Various concentrations of test compound, typically in 10 serial dilutions, were added to the assay mixture, with the starting concentration ranging from 333.3 nM to […]. The final concentration of DMSO was 0.5%. Fetal bovine serum was 5%, in the assay media. Cells were harvested on day 3 by removing media and washing the cells with a suitable wash buffer. The cells are lysed with the addition of 1× Qiagen lysis buffer (Cat #1062731). The replicon RNA level was measured using real time PCR (TaqMan® EZ RT-PCR, Applied Biosystems 403028) with the following primers and probes: […]
(§2) Cyclophilin RNA was used as endogenous control and was amplified in the same reaction as NS5B (multiplex PCR). The real-time RT-PCR reactions were run on ABI PRISM 7900HT Sequence Detection System using the following program: 50° C. for 2 minutes, 60° C. for 30 minutes, 95° C. for 5 minutes, 40 cycles of 94 C for 20 sec, 55 C for 1 minutes.
(§3) The amount of HCV replicon RNA per cell is quantified using a linear regression curve for a known nanogram (ng) amount of HCV replicon total RNA. This is established by plotting the Cycle Threshold values (Ct) from the Neo probe and primer set versus the log (ng) for each HCV replicon total RNA standard. The amount of HCV RNA for each replicon sample is calculated by taking the sample's Ct value, minus the line intercept, divided by the slope of the line. Similarly, the amount of Cyclophilin mRNA per cell is also quantified using a linear regression curve for a known nanogram (ng) amount of HCV replicon total RNA. Again, this is established by plotting the Cycle Threshold values (Ct) from the Cyclophilin probe and primer set versus the log (ng) for each HCV replicon total RNA standard.
(§4) In an alternate assay (“Replicon Assay B”), 1000 cells were seeded per well in a 384-well collagen coated black plate from Greiner bio-one (Cat #781946) in 5% FBS. Inhibitors of this invention were added at 24 h post-seeding, and the plates were incubated for 3 days. Cells were subsequently lysed with Qiagen lysis buffer (Cat #1062731) to extract the RNA. HCV replicon RNA level was measured by real-time PCR using the RNA-to-CT kit from Applied Biosystem (Cat #4392656) and genotype-specific primers and probes. The amplicon was located within NS5B. The sequence of the PCR primers are as follows: 5B.2F, ATGGACAGGCGCCCTGA (SEQ. ID NO. 1); 5B.2R, […] (SEQ. ID NO. 2); the probe sequence was FAM-labeled CACGCCATGCGCTGCGG (SEQ. ID NO. 3). To detect genotype 1A the primer 1A F, TGCGGAACCGGTGAGTACA and 1A R, […] were used; the probe sequence was FAM-[…].
(§5) The real-time RT-PCR reactions were run on ABI PRISM 7900HT or Viia7 Sequence Detection System using the following program: 48° C. for 30 minutes, 95 C for 10 minutes, 40 cycles of 95 C for 15 sec, 60 C for 1 minutes. The 50% effective concentration (EC50) was the drug concentration necessary to achieve an increase in the cycle threshold (CT) of 1 over the projected baseline CT. The EC90 was the drug concentration necessary to achieve an increase in CT of 3.2 over the projected baseline CT.

HCV replicon GT3a_Y93H = assay: Cell-based HCV replicon assay, GT3a Y93H; details: Hepatitis C virus, 72 h, read-out: GT3a_Y93H EC90
Experimental: as §1, §2, §3, §4, §5

HCV replicon GT3a_WT = assay: Cell-based HCV replicon assay, GT3a WT; details: Hepatitis C virus, 72 h; replicon RNA level by real-time PCR, 3 days
Experimental: as §1, §2, §3, §4, §5

HCV replicon GT1a_Y93H = assay: Cell-based HCV replicon assay, GT1a Y93H; details: Hepatitis C virus, 72 h, read-out: GT1a_Y93H EC90
Experimental: as §1, §2, §3, §4, §5

HCV replicon GT5 = assay: Cell-based HCV replicon assay, GT5; details: Hepatitis C virus, GT5, 72 h; replicon RNA level by real-time PCR, 3 days
Experimental: as §1, §2, §3, §4, §5

HCV replicon GT2b_31M = assay: Cell-based HCV replicon assay, GT2b 31M; details: Hepatitis C virus, 72 h, read-out: GT2b_31M EC90
Experimental: as §1, §2, §3, §4, §5

HCV replicon GT1a_Q30R = assay: Cell-based HCV replicon assay, GT1a Q30R; details: Hepatitis C virus, 72 h, read-out: GT1a_Q30R EC90
Experimental: as §1, §2, §3, §4, §5

HCV replicon GT6 = assay: Cell-based HCV replicon assay, GT6; details: Hepatitis C virus, GT6, 72 h; replicon RNA level by real-time PCR, 3 days
Experimental: as §1, §2, §3, §4, §5

HCV replicon GT2a = assay: Cell-based HCV replicon assay, GT2a; details: Hepatitis C virus, 72 h, read-out: GT2a EC90
Experimental: as §1, §2, §3, §4, §5

HCV replicon GT1b_WT = assay: Cell-based HCV replicon assay, GT1b WT; details: Hepatitis C virus, 72 h; replicon RNA level by real-time PCR, 3 days; read-out: GT1b_WT EC90
Experimental: as §1, §2, §3, §4, §5

HCV replicon GT4 = assay: Cell-based HCV replicon assay, GT4; details: Hepatitis C virus, GT4, 72 h; replicon RNA level by real-time PCR, 3 days
Experimental: as §1, §2, §3, §4, §5

Row | SMILES | EC90 (HCV replicon GT1a_L31V) | EC90 (HCV replicon GT3a_Y93H) | EC90 (HCV replicon GT3a_WT) | EC90 (HCV replicon GT1a_Y93H) | EC90 (HCV replicon GT5) | EC90 (HCV replicon GT2b_31M) | EC90 (HCV replicon GT1a_Q30R) | EC90 (HCV replicon GT6) | EC90 (HCV replicon GT2a) | EC90 (HCV replicon GT2a; replicon RNA level by real-time PCR, 3 days) | EC90 (HCV replicon GT1b_WT) | EC90 (HCV replicon GT4)
1 | COC(=O)NC(C(=O)N1C[Si](C)(C)C[C@H]1c1ncc(-c2ccc3c(c2)cc2n3[C@H](c3cnc(C4CC4)s3)Oc3cc(-c4cnc([C@@H]5CCCN5C(=O)[C@@H](NC(=O)OC)C(C)C)[nH]4)cc(F)c3-2)[nH]1)C1CCOCC1 (stereo partly drawn) [Compound 2] | 3 pM | 168000 pM | 170 pM | 62 pM | 4.1 pM | 231 pM | 4.3 pM | 4.4 pM |  |  |  | 
2 | COC(=O)N[C@H](C(=O)N1CCC[C@H]1c1ncc(-c2cc(F)c3c(c2)O[C@@H](c2cnc(C4CC4)s2)n2c-3cc3cc(-c4cnc([C@@H]5C[Si](C)(C)CN5C(=O)[C@@H](NC(=O)OC)C(C)C)[nH]4)ccc32)[nH]1)C(C)C [Compound 1] | 56.8 pM | 393000 pM | 1770 pM | 231 pM | 5.6 pM | 2430 pM | 19.3 pM | 5.9 pM | 2.78 pM |  |  | 
3 | CN[C@@H](C(=O)N1C[Si](C)(C)C[C@H]1c1ncc(-c2cc(F)c3c(c2)O[C@@H](c2cnc(C4CC4)s2)n2c-3cc3cc(-c4cnc([C@@H]5CCCN5C(=O)C(NC(=O)OC)C(C)C)[nH]4)ccc32)[nH]1)c1ccccc1 (stereo partly drawn) [Compound 11] | 96.3 pM | 74000 pM | 347 pM | 933 pM | 9.8 pM | 705 pM | 31.8 pM | 6.6 pM |  | 1 pM | 1.54 pM | 
4 | CNC(C(=O)N1C[Si](C)(C)C[C@H]1c1ncc(-c2ccc3c(c2)cc2n3[C@H](c3ccc(C4CC4)s3)Oc3cc(-c4cnc([C@@H]5CCCN5C(=O)[C@@H](NC(=O)OC)C(C)C)[nH]4)cc(F)c3-2)[nH]1)c1ccccc1 (stereo partly drawn) [Compound 19] | 10.6 pM | 109000 pM | 56 pM | 219 pM | 4.8 pM | 92 pM | 5.3 pM | 4.7 pM |  |  |  | 
5 | COC(=O)N[C@H](C(=O)N1CCC[C@H]1c1ncc(-c2cc(F)c3c(c2)O[C@@H](c2ccc(C4CC4)s2)n2c-3cc3cc(-c4cnc([C@@H]5C[Si](C)(C)CN5C(=O)[C@@H](N)c5ccccc5)[nH]4)ccc32)[nH]1)C(C)C [Compound 18] | 68.1 pM | 206000 pM | 27 pM | 1220 pM | 6.8 pM | 62 pM | 37.2 pM | 8.4 pM |  |  | 1.11 pM | 
6 | COC(=O)NC(C(=O)N1CCC[C@H]1c1ncc(-c2ccc3c(c2)cc2n3[C@H](c3cnc(C4CC4)s3)Oc3cc(-c4cnc([C@@H]5C[Si](C)(C)CN5C(=O)[C@@H](NC(=O)OC)[C@@H]5CCOC(C)(C)C5)[nH]4)cc(F)c3-2)[nH]1)C(C)C (stereo partly drawn) [Compound 8] | 8.8 pM | 133000 pM | 709 pM | 271 pM | 7.2 pM | 1120 pM | 5.6 pM | 7.9 pM | 1.18 pM |  |  | 1.03 pM
